The values that follow come from EP1420008B1, “Composition, in particular cosmetic, comprising a secondary or tertiary amine” (L'ORÉAL, priority 2002, dated 2004).

pIC50: −log10 of the molar value.

Assay [1] concerns the target canaux calciques de type L, site vérapamil (Rattus norvegicus, UniProt P22002). The experiment in a line: Calcium channel test: competitive inhibition of [3H](-) D 888 binding, rat cerebral cortex homogenates. From the text:
Le test mesure la capacité d'un produit à inhiber par compétition la fixation d'[…] de canaux calciques de type L, type Vérapamil. Ces canaux ont été identifiés au niveau des fibroblastes humains (Baumgarten LB and coll (1992), J. Biol. Chem, 267, 10524-10530 et Chen CF and coll (1988), Science, 239, 1024-1026).
Les études sont réalisées à partir d'homogénats de cortex cérébral de rat (membranes isolées présentant à leur surface notamment les canaux calciques de type L).
Les conditions expérimentales selon le protocole décrit par Reynolds I.J. et al., 1986, J. Pharmacol. Exp. Ther., 237, p.731, sont présentées dans le tableau 1 ci-dessous : Tableau 1
D888 et D600 sont les molécules de référence spécifiques des canaux calciques de type L, site vérapamil.
La liaison spécifique d'un ligand (D888 marqué) aux récepteurs (canaux calciques de type L, site vérapamil) est défini comme la différence entre la liaison totale et la liaison non spécifique déterminée en présence d'un excès de ligand non radioactif. Les résultats sont exprimés en pourcentage de liaison spécifique témoin et en pourcentage d'inhibition de cette liaison en présence des composés testés.
Les valeurs d'IC50 (concentration inhibant 50% de la liaison spécifique témoin) et du coefficient de Hill (nH) sont calculées pour les composés testés à partir des courbes de compétition selon un modèle de régression non linéaire. […]

Assay [2] concerns jonction nerf / muscle (plaque motrice). The experiment in a line: Nerve/muscle junction model (motor end plate): isolated rat phrenic nerve / diaphragm preparation, contractions induced by indirect stimulation. The following applies: for inhibition at 100 µM: Rattus norvegicus, concentration 10^-4 M, contractions induced by stimulation of the phrenic nerve (0.1 à 0.5 volts, 0.3 ms, 0.1 Hz), read-out: % INHIBITION DES CONTRACTIONS
How it is done: Le composé 1 a été testé sur un modèle de jonction nerf / muscle (plaque motrice) obtenu dans une préparation nerf phrénique / diaphragme isolé de rat (muscle strié) (Pollard B.J. et al, Br.J. Anaesth., 1988, 61, 419-424).
(§1) Ce test est prédictif d'un effet anti-rides, comme cela a été vérifié par la Demanderesse sur le diazépam, qui est à la fois actif in vivo chez l'homme et dans ce test à 10^-4 M.
Le nerf phrénique et le diaphragme sont soigneusement isolés et placés dans une cuve de 50 ml remplie de liquide de survie (liquide de Krebs Henseleit) maintenu à une température de 37°C et oxygéné à l'aide d'un mélange oxygène/CO2 (95/5).
Les variations de tension du diaphragme sont enregistrées avec une pré-charge initiale de plusieurs grammes.
Après une période de relaxation de 30 mn, le diaphragme est stimulé indirectement par l'intermédiaire du nerf phrénique.
Sur chaque préparation, l'effet du composé à tester a été évalué sur les contractions induites par stimulation indirecte via stimulation sur le nerf phrénique (0.1 à 0.5 volts, 0.3 ms, 0.1 Hz). L'alvérine, connue comme composé myorelaxant à effet anti-rides d'après la demande FR-2 798 590, est utilisée comme témoin.

The nature of assay [3]: Anti-wrinkle effect in vivo in man (verification of the predictive value of the nerve/muscle test). The following applies: in vivo chez l'homme.
Source text: as §1

Sequence of canaux calciques de type L, site vérapamil (P22002 whole entry): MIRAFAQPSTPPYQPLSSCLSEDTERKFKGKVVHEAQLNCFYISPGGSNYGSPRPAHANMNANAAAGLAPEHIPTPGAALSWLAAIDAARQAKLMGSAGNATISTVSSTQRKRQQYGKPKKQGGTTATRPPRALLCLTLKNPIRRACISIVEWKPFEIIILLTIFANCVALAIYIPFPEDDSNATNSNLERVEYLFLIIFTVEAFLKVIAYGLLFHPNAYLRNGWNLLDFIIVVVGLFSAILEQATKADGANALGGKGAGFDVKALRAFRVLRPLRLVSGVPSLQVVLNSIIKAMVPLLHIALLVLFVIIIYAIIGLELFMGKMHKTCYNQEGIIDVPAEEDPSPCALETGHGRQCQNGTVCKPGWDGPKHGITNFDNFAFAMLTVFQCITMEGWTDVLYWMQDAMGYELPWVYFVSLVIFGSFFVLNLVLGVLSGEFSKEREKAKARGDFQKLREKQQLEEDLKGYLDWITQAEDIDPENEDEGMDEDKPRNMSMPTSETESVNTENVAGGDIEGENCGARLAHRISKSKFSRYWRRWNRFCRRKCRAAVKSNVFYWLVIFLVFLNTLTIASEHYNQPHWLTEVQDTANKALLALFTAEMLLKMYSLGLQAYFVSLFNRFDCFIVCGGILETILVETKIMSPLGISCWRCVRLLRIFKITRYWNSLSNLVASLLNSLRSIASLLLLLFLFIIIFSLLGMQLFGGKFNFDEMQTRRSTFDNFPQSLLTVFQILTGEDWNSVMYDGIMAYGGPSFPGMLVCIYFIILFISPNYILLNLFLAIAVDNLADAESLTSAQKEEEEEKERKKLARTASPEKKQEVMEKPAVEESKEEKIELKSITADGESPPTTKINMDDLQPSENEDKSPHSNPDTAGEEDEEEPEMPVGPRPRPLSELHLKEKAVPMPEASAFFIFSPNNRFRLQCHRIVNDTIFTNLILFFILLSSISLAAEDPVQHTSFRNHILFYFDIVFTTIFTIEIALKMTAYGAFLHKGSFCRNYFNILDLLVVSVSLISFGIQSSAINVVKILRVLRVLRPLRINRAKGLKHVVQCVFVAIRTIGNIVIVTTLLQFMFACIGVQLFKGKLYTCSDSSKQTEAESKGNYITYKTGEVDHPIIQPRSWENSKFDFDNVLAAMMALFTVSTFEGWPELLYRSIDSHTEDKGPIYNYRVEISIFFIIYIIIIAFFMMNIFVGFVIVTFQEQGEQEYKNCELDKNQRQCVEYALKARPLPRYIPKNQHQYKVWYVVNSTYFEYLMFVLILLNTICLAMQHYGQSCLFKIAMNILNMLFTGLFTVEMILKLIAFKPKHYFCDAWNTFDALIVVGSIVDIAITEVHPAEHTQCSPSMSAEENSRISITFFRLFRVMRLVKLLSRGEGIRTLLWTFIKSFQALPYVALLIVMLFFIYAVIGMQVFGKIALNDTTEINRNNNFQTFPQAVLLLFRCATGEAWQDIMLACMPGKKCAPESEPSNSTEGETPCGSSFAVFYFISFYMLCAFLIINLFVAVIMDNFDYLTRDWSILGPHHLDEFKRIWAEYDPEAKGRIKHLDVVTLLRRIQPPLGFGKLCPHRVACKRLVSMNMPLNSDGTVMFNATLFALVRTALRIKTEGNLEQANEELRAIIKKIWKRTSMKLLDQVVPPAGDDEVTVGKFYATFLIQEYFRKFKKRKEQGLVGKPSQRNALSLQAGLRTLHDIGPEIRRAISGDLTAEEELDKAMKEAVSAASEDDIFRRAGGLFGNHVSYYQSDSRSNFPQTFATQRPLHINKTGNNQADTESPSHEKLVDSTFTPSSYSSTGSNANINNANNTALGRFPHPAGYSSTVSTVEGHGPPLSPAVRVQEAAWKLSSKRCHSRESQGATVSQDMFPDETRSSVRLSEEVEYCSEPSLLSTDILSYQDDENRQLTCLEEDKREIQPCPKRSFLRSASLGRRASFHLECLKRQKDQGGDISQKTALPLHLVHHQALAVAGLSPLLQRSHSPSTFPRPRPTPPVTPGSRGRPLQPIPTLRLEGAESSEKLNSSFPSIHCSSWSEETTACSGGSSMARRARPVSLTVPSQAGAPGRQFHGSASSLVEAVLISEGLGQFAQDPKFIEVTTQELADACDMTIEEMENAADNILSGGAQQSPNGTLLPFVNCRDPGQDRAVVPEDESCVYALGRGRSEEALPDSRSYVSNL

A word on the pIC50: it is −log10 of the IC50, conventionally taken in molar units. By inhibition is commonly meant the drop in the measured response relative to a control, in per cent. In the case of `CCN(CCCc1ccccc1)CCCc1ccccc1` [Alvérine], the negative logarithm of the IC50 (pIC50) in assay [1] (ligand [^3H](-) D 888 0.5 nM, non-specific D 600 (10 µM), 60 min. /22°C, measured in duplicate) is 6.16. In assay [2], the inhibition at 100 µM is 100%.

On to `CCCCCC(O)(CCCCC)CCN(CC)CCCc1ccccc1` [Composé 1, 6-[2-{ethyl-(3-phenyl-propyl)amino}-ethyl]-undecan-6-ol], for which the “calcium channel inhibition compared with alvérine” value in assay [1] (conclusion from the IC50 values of Tableau 2) is listed as “meilleur inhibiteur de canaux calciques que l'alvérine”. The inhibition at 100 µM in assay [2] was found to be 100%.

As for `CN1C(=O)CN=C(c2ccccc2)c2cc(Cl)ccc21` [diazépam], in assay [3], the “activity in vivo (anti-wrinkle effect)” value is recorded as “actif”. Also, in assay [2] (10^-4 M), the “activity in the nerve/muscle junction test” value was “actif”.
